In data set [1] the test system is HIV-IIIb. As to the kind of experiment: Test A: Antiviral Assay in MT4 Cells. In kind it is cell-based, HIV-1. Conditions: Human immunodeficiency virus 1, IIIB, MT4, 120 h; for inhibition at 0.2 µM: read-out: % inhibition at 0.2 μM; for inhibition at 2 µM: read-out: % inhibition at 2 μM. As for the experimental part:
Test A: Antiviral Assay in MT4 Cells
MT-4 cells were next mixed with HIV-IIIb at an m.o.i of 0.003 for 1 hour, after which time 35 μL of virus/cell mixture (2000 cells) was immediately added to each well containing 40 μL of diluted compound. The plates were then incubated at 37° C. for 5 days. […] Cell lysis was carried out by incubating at room temperature for 10 min and then chemiluminescence was read.

Data set [2] in a line: Test B: Cytotoxicity Assay. Particulars: human, uninfected MT-4 cells, same protocol as Test A. In kind it is cell-based. Put shortly: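 Uninfected MT-4 cells (2000 per well) incubated with diluted compound at 37° C. for 5 days, following the antiviral protocol without HIV-IIIb.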

Each structure is given as a SMILES string.

One may read the inhibition as how much of the control response was suppressed. By CC50 is commonly meant the concentration that lowers cell viability or growth by half. A low value points to greater toxicity to the cells. Take `Cn1cc(-c2ccc(-c3cccc4c(NS(C)(=O)=O)nn(C)c34)c([C@H](Cc3cc(F)cc(F)c3)NC(=O)Cn3nc(C(F)(F)F)c4c3C(F)(F)[C@@H]3C[C@H]43)n2)cn1` [Compound 60, 2-((3bS,4aR)-5,5-difluoro-3-(trifluoromethyl)-3b,4,4a,5-tetrahydro-1H-cyclopropa[3,4]cyclopenta[1,2-c]pyrazol-1-yl)-N—((S)-2-(3,5-difluorophenyl)-1-(6-(1-methyl-1H-pyrazol-4-yl)-3-(1-methyl-3-(methylsulfonamido)-1H-indazol-7-yl)pyridin-2-yl)ethyl)acetamide]: in data set [1], the inhibition at 0.2 µM is 86% and the inhibition at 2 µM was 96%. It took 14.3 µM to reach half-maximal cytotoxicity in data set [2] (CC50 at 5 days).
Consider `Cn1nc(NS(C)(=O)=O)c2cccc(-c3ccc(C#CC(C)(C)O)nc3[C@H](Cc3cc(F)cc(F)c3)NC(=O)Cn3nc(C(F)F)c4c3C(F)(F)CCC4(F)F)c21` [Compound 42, (S)-2-(3-(difluoromethyl)-4,4,7,7-tetrafluoro-4,5,6,7-tetrahydro-1H-indazol-1-yl)-N-(2-(3,5-difluorophenyl)-1-(6-(3-hydroxy-3-methylbut-1-yn-1-yl)-3-(1-methyl-3-(methylsulfonamido)-1H-indazol-7-yl)pyridin-2-yl)ethyl)acetamide], for which, in data set [1], the inhibition at 0.2 µM is 100% and the inhibition at 2 µM worked out at 100%. This compound had a CC50 at 5 days in data set [2] of 11.8 µM.
Consider `Cn1nc(NS(C)(=O)=O)c2c(Cl)ccc(-c3ccc(C#CC(C)(C)O)nc3[C@H](Cc3cc(F)cc(F)c3)NC(=O)Cn3nc(Cl)c4c3CCCC4)c21` [Compound 126, (S)—N-(1-(3-(4 chloro-1-methyl-3-(methylsulfonamido)-1H-indazol-7-yl)-6-(3-hydroxy-3-methylbut-1-yn-1-yl)pyridin-2-yl)-2-(3,5-difluorophenyl)ethyl)-2-(3-chloro-4,5,6,7-tetrahydro-1H-indazol-1-yl)acetamide], for which, in data set [1], the inhibition at 0.2 µM is 92% and the inhibition at 2 µM was 92%. This compound also displayed a CC50 at 5 days in data set [2] of 15.5 µM.
In the case of `Cn1nc(N)c2cccc(-c3ccc(C#CC(C)(C)O)nc3[C@H](Cc3cc(F)cc(F)c3)NC(=O)Cn3nc(C(F)F)c4c3C3CC3CC4)c21` (stereo partly drawn) [Compound 34, N—((S)-1-(3-(3-amino-1-methyl-1H-indazol-7-yl)-6-(3-hydroxy-3-methylbut-1-yn-1-yl)pyridin-2-yl)-2-(3,5-difluorophenyl)ethyl)-2-(3-(difluoromethyl)-5,5a,6,6a-tetrahydrocyclopropa[g]indazol-1(4H)-yl)acetamide], in data set [1], the inhibition at 0.2 µM amounted to 78% and the inhibition at 2 µM came to 78%. In data set [2], this compound returned a CC50 at 5 days of 8.76 µM.
As for `Cn1nc(NC(=O)C(F)(F)F)c2c(Cl)ccc(-c3ccc(C#CC(C)(C)O)nc3[C@H](Cc3cc(F)cc(F)c3)NC(=O)Cn3nc(C(F)F)c4c3C(F)(F)[C@@H]3C[C@H]43)c21` [Compound 98, N-(4-chloro-7-(2-((S)-1-(2-((3bS,4aR)-3-(difluoromethyl)-5,5-difluoro-3b,4,4a,5-tetrahydro-1H-cyclopropa[3,4]cyclopenta[1,2-c]pyrazol-1-yl)acetamido)-2-(3,5-difluorophenyl)ethyl)-6-(3-hydroxy-3-methylbut-1-yn-1-yl)pyridin-3-yl)-1-methyl-1H-indazol-3-yl)-2,2,2-trifluoroacetamide], in data set [1], the inhibition at 0.2 µM turned out to be 100% and the inhibition at 2 µM is 100%. For the same compound, it took 8.41 µM to reach half-maximal cytotoxicity in data set [2] (CC50 at 5 days).
For `Cc1n[nH]c2cccc(-c3ccc(C#CC(C)(C)O)nc3[C@H](Cc3cc(F)cc(F)c3)NC(=O)Cn3nc(C(F)(F)F)c4c3C(F)(F)[C@@H]3C[C@H]43)c12` [Compound 79, 2-((3bS,4aR)-5,5-difluoro-3-(trifluoromethyl)-3b,4,4a,5-tetrahydro-1H-cyclopropa[3,4]cyclopenta[1,2-c]pyrazol-1-yl)-N—((S)-2-(3,5-difluorophenyl)-1-(6-(3-hydroxy-3-methylbut-1-yn-1-yl)-3-(3-methyl-1H-indazol-4-yl)pyridin-2-yl)ethyl)acetamide], in data set [1], the inhibition at 0.2 µM is 100% and the inhibition at 2 µM stood at 100%. The compound also displayed a CC50 at 5 days in data set [2] of 4.72 µM.
Turning to `CC(=O)Nc1nn(CC(=O)N[C@@H](Cc2cc(F)cc(F)c2)c2nc(C#CC(C)(C)O)ccc2-c2ccc(Cl)c3c(NS(C)(=O)=O)nn(C)c23)c2c1[C@H]1C[C@H]1C2(F)F` [Compound 163, 2-((3bS,4aR)-3-acetamido-5,5-difluoro-3b,4,4a,5-tetrahydro-1H-cyclopropa[3,4]cyclopenta[1,2-c]pyrazol-1-yl)-N—((S)-1-(3-(4-chloro-1-methyl-3-(methylsulfonamido)-1H-indazol-7-yl)-6-(3-hydroxy-3-methylbut-1-yn-1-yl)pyridin-2-yl)-2-(3,5-difluorophenyl)ethyl)acetamide], in data set [1], the inhibition at 0.2 µM is 79% and the inhibition at 2 µM turned out to be 86%. For the same compound, the midpoint of cytotoxicity in data set [2], the CC50 at 5 days, lay at 8.85 µM.
Taken in the same sequence, the figures for `CC(C)(C)C#Cc1ccc(-c2ccc(Cl)n3c(NS(C)(=O)=O)nnc23)c([C@H](Cc2cc(F)cc(F)c2)NC(=O)Cn2nc(C(F)F)c3c2C(F)(F)[C@@H]2C[C@H]32)n1` [Compound 118, N—((S)-1-(3-(5-chloro-3-(methylsulfonamido)-[1,2,4]triazolo[4,3-a]pyridin-8-yl)-6-(3,3-dimethylbut-1-yn-1-yl)pyridin-2-yl)-2-(3,5-difluorophenyl)ethyl)-2-((3b-S,4aR)-3-(difluoromethyl)-5,5-difluoro-3b,4,4a,5-tetrahydro-1H-cyclopropa[3,4]cyclopenta[1,2-c]pyrazol-1-yl)acetamide] were 96%, 96% and 23.9 µM.
Consider `Cc1ccc(-c2ccc(C#CC(C)(C)O)nc2[C@H](Cc2cc(F)cc(F)c2)NC(=O)Cn2nc(C(F)F)c3c2C(F)(F)[C@@H]2C[C@H]32)c2c1c(N)nn2C` [Compound 58G, N—((S)-1-(3-(3-amino-1,4-dimethyl-1H-indazol-7-yl)-6-(3-hydroxy-3-methylbut-1-yn-1-yl)pyridin-2-yl)-2-(3,5-difluorophenyl)ethyl)-2-((3b-S,4aR)-3-(difluoromethyl)-5,5-difluoro-3b,4,4a,5-tetrahydro-1H-cyclopropa[3,4]cyclopenta[1,2-c]pyrazol-1-yl)acetamide], for which, in data set [1], the inhibition at 0.2 µM was determined as 95% and the inhibition at 2 µM is 95%. Besides, half-maximal cytotoxicity in data set [2] (CC50 at 5 days) was put at 8.44 µM.
As for `COc1ccc(-c2ccc(C#CC(C)(C)O)nc2[C@H](Cc2cc(F)cc(F)c2)NC(=O)Cn2nc(C(F)F)c3c2C(F)(F)[C@@H]2C[C@H]32)c2c1c(N)nn2C` [Compound 114G, N—((S)-1-(3-(3-amino-4-methoxy-1-methyl-1H-indazol-7-yl)-6-(3-hydroxy-3-methylbut-1-yn-1-yl)pyridin-2-yl)-2-(3,5-difluorophenyl)ethyl)-2-((3b-S,4aR)-3-(difluoromethyl)-5,5-difluoro-3b,4,4a,5-tetrahydro-1H-cyclopropa[3,4]cyclopenta[1,2-c]pyrazol-1-yl)acetamide], in data set [1], the inhibition at 0.2 µM is 100% and the inhibition at 2 µM amounted to 100%. The same compound showed a CC50 at 5 days in data set [2] of 14.8 µM.
For the compound `Cn1nc(NS(C)(=O)=O)c2c(Cl)ccc(-c3cc(-c4ccccc4)cnc3[C@H](Cc3cc(F)cc(F)c3)NC(=O)Cn3nc(C(F)F)c4c3C(F)(F)[C@@H]3C[C@H]43)c21` [Compound 177D, N—((S)-1-(3-(4-chloro-1-methyl-3-(methylsulfonamido)-1H-indazol-7-yl)-5-phenylpyridin-2-yl)-2-(3,5-difluorophenyl)ethyl)-2-((3b-S,4aR)-3-(difluoromethyl)-5,5-difluoro-3b,4,4a,5-tetrahydro-1H-cyclopropa[3,4]cyclopenta[1,2-c]pyrazol-1-yl)acetamide], in data set [1], the inhibition at 0.2 µM was 100% and the inhibition at 2 µM turned out to be 100%. Also, the CC50 at 5 days in data set [2] is > 53.2 µM.
For `Cn1nc(NS(C)(=O)=O)c2c(Cl)ccc(-c3ccc(C#CC(C)(C)O)nc3[C@H](Cc3cc(F)cc(F)c3)NC(=O)Cn3nc(C(F)F)cc3C(F)F)c21` [Compound 189, (S)-2-(3,5-bis(difluoromethyl)-1H-pyrazol-1-yl)-N-(1-(3-(4 chloro-1-methyl-3-(methylsulfonamido)-1H-indazol-7-yl)-6-(3-hydroxy-3-methylbut-1-yn-1-yl)pyridin-2-yl)-2-(3,5-difluorophenyl)ethyl)acetamide], in data set [1], the inhibition at 0.2 µM worked out at 88% and the inhibition at 2 µM stood at 88%. Also, the CC50 at 5 days in data set [2] is 17.2 µM.
In the case of `Cn1nc(NC(=O)CNC2CC2)c2c(Cl)ccc(-c3ccc(C#CC(C)(C)O)nc3[C@H](Cc3cc(F)cc(F)c3)NC(=O)Cn3nc(C(F)F)c4c3C(F)(F)[C@@H]3C[C@H]43)c21` [Compound 102, N—((S)-1-(3-(4-chloro-3-(2-(cyclopropylamino)acetamido)-1-methyl-1H-indazol-7-yl)-6-(3-hydroxy-3-methylbut-1-yn-1-yl)pyridin-2-yl)-2-(3,5-difluorophenyl)ethyl)-2-((3b-S,4aR)-3-(difluoromethyl)-5,5-difluoro-3b,4,4a,5-tetrahydro-1H-cyclopropa[3,4]cyclopenta[1,2-c]pyrazol-1-yl)acetamide], in data set [1], the inhibition at 0.2 µM was 100% and the inhibition at 2 µM turned out to be 100%. This compound displayed a CC50 at 5 days in data set [2] of 5.82 µM.

These data come from patent US20140303164A1, “THERAPEUTIC COMPOUNDS” (Gilead Sciences, Inc., priority 2013, published 2014).
